Source: patent US8563556B2, “Crystalline forms and two solvated forms of 4-amino-5-fluoro-3-[5-(4-methylpiperazin-1-yl)-1H-benzimidazol-2-yl]quinolin-2(1H)-one lactic acid salts” (Novartis AG, priority 2008, dated 2013)
Where a name gives a salt, the structure may show the parent alone. Read-outs that look alike come from different tables or passages of the source.

Key:
[1] = Solubility of crystalline forms in solvents; assay type: physicochemical; details: for Solubility, Butanol: solvent butanol
[2] = Heat of solution in water at 25° C.; assay type: physicochemical

CN1CCN(c2ccc3nc(-c4c(N)c5c(F)cccc5[nH]c4=O)[nH]c3c2)CC1 [Anhydrous form A, 4-amino-5-fluoro-3-[5-(4-methylpiperazin-1-yl)-1H-benzimidazol-2-yl]quinolin-2(1H)-one lactic acid salt]
Solubility, Acetone ([1]; solvent acetone, temperature not given): 840 µg/mL
Solubility, Butanol ([1]; temperature not given): 950 µg/mL
Solubility, Ethanol ([1]; solvent ethanol, temperature not given): 840 µg/mL
Solubility, Isopropanol ([1]; solvent isopropanol, temperature not given): 160 µg/mL
Solubility, Water ([1]; solvent water, temperature not given): 107000 µg/mL
Heat of solution in water (endothermic) [2]: 1.1 kcal/mol

CN1CCN(c2ccc3nc(-c4c(N)c5c(F)cccc5[nH]c4=O)[nH]c3c2)CC1 [Anhydrous form II, 4-Amino-5-fluoro-3-[5-(4-methylpiperazin-1-yl)-1H-benzimidazol-2-yl]quinolin-2(1H)-one lactate anhydrous form II]
solubility ([1]; acetone, organic solvent or mixture, solvent acetone, temperature not given, read-out: Solubility, Acetone): 510 µg/mL
solubility ([1]; ethanol, organic solvent or mixture, solvent ethanol, temperature not given, read-out: Solubility, Ethanol): 710 µg/mL
solubility ([1]; isopropanol, organic solvent or mixture, solvent isopropanol, temperature not given, read-out: Solubility, Isopropanol): 80 µg/mL
Solubility, Butanol ([1]; temperature not given): 340 µg/mL
solubility ([1]; water, solvent water, temperature not given, read-out: Solubility, Water): 68000 µg/mL
Heat of solution in water (endothermic) ([2]; listed as Form B): 2.2 kcal/mol

CN1CCN(c2ccc3nc(-c4c(N)c5c(F)cccc5[nH]c4=O)[nH]c3c2)CC1 [hemi-pentahydrate, 4-Amino-5-fluoro-3-[5-(4-methylpiperazin-1-yl)-1H-benzimidazol-2-yl]quinolin-2(1H)-one lactate hemi-pentahydrate]
solubility ([1]; 0.1 N HCl, 25 °C, simulated gastric fluid, HCl 0.1N, 25° C., read-out: Solubility at 25° C., HCl 0.1N): 55000 µg/mL
solubility ([1]; ethanol, 25 °C, organic solvent or mixture, ethanol, 25° C., read-out: Solubility at 25° C., ethanol): 2000 µg/mL
Solubility at 25° C., water ([1]; water, 25° C.): 6200 µg/mL
Heat of solution in water (endothermic) [2]: 7.17 kcal/mol
